Literature values, collected in patent US20090098217A1, “COMPOSITIONS AND METHODS FOR PROMOTING THICKER HAIR” (priority 2007, published 2009).
Where two headings read alike, the source gives them in different places.

Assays:
5-alpha-reductase [1] = conditions: 5 or 10 mg of zinc injected in rat prostate
5-alpha-reductase [2] = conditions: in vitro

SMILES: [Zn] [zinc]
- 5-alpha-reductase activity (5-alpha-reductase [1]): significantly reduced 5-alpha-reductase activity
- conversion of testosterone to DHT (5-alpha-reductase [2]; low concentrations of zinc): enhance conversion of testosterone to DHT
- conversion of testosterone to DHT (5-alpha-reductase [2]; mM concentrations of zinc): inhibited it
